Literature values in PMC5655430 (PLoS ONE, 2017).

What was measured:
glucagon receptor (Gcgr) = system: glucagon receptor (Gcgr)
Description: (§1) The complex nature of diabetic disorder necessitates use of combination therapies that will not only reduce hyperglycemia, but also correct other elements of diabetes complication, such as dyslipidemia. An increasingly common approach in peptide therapeutics focuses on hybrid peptides that can target two or even three receptors. […] Similar dual agonist peptides, with improved half-life and potency have been rep ...

[1] = system: glucagon-like peptide 1 receptor (Glp1r)
Description: as §1

Oxyntomodulin
Binding and activation on Gcgr (glucagon receptor (Gcgr)): weak binding and activation
Binding and activation on Glp1r [1]: weak binding and activation
